From patent US9763957B2, “Autotaxin inhibitors” (Novartis AG, priority 2013, dated 2017)

Target: Recombinant human ATX (Homo sapiens (Human), UniProt Q13822)
Assay: ATX inhibition assay (choline release, Amplex Red fluorescence)
Format: biochemical
Details: ATX 10 nM, LPC 18:1 10 μM, 37° C., 20 min pre-incubation; mean of n≧2
How it was run: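 Activity was taken from the slope of resorufin fluorescence (530/590 nm, read every 2 min for 40 min at 37 °C) produced by choline liberated from 10 μM oleoyl LPC.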

In order of rising IC50:
1. CCc1nnc(C2CCN(C(=O)/C=C/c3ccc(C(F)(F)F)cc3Cn3nnc(C)n3)CC2)o1 [Example 92, (E)-1-(4-(5-Ethyl-1,3,4-oxadiazol-2-yl)piperidin-1-yl)-3-(2-((5-methyl-2H-tetrazol-2-yl)methyl)-4-(trifluoromethyl)phenyl)prop-2-en-1-one]  3.6 nM
2. Cc1noc(CN2CCN(C(=O)/C=C/c3ccc(Cl)cc3Cn3nnc(C)n3)[C@H](C)C2)n1 [Example 114, (R,E)-3-(4-Chloro-2-((5-methyl-2H-tetrazol-2-yl)methyl)phenyl)-1-(2-methyl-4-((3-methyl-1,2,4-oxadiazol-5-yl)methyl)piperazin-1-yl)prop-2-en-1-one]  3.9 nM
3. Cc1nnn(Cc2cc(Cl)ccc2/C=C/C(=O)N2CCN(Cc3coc(C)n3)C[C@H]2C)n1 [Example 62, (R,E)-3-(4-Chloro-2-((5-methyl-2H-tetrazol-2-yl)methyl)phenyl)-1-(2-methyl-4-((2-methyloxazol-4-yl)methyl)piperazin-1-yl)prop-2-en-1-one]  4.2 nM
4. Cc1nnn(Cc2cc(C(F)(F)F)ccc2/C=C/C(=O)N2CCN(Cc3coc(C)n3)CC2)n1 [Example 74, (E)-3-(2-((5-Methyl-2H-tetrazol-2-yl)methyl)-4-(trifluoromethyl)phenyl)-1-(4-((2-methyloxazol-4-yl)methyl)piperazin-1-yl)prop-2-en-1-one]  5.5 nM
5. CCOC(=O)C1CCN(C(=O)/C=C/c2ccc(Cl)cc2Cn2nnc(C)n2)CC1 [Example 49.9, (E)-ethyl 1-(3-(4-Chloro-2-((5-methyl-2H-tetrazol-2-yl)methyl)phenyl)acryloyl)piperidine-4-carboxylate]  5.9 nM
6. Cc1nnn(Cc2cc(C(F)(F)F)ccc2/C=C/C(=O)N2CCC(Cc3noc(C)n3)CC2)n1 [Example 71, (E)-1-(4-((5-Methyl-1,2,4-oxadiazol-3-yl)methyl)piperidin-1-yl)-3-(2-((5-methyl-2H-tetrazol-2-yl)methyl)-4-(trifluoromethyl)phenyl)prop-2-en-1-one]  6 nM
7. COCC(=O)N(C)C1CCN(C(=O)/C=C/c2ccc(C(F)(F)F)cc2Cn2nnc(C)n2)CC1 [Example 84, (E)-2-Methoxy-N-methyl-N-(1-(3-(2-((5-methyl-2H-tetrazol-2-yl)methyl)-4-(trifluoromethyl)phenyl)acryloyl)piperidin-4-yl)acetamide]  8.1 nM
8. Cc1noc(CC2CCN(C(=O)/C=C/c3ccc(C(F)(F)F)cc3Cn3nnc(C)n3)CC2)n1 [Example 60, (E)-1-(4-((3-Methyl-1,2,4-oxadiazol-5-yl)methyl)piperidin-1-yl)-3-(2-((5-methyl-2H-tetrazol-2-yl)methyl)-4-(trifluoromethyl)phenyl)prop-2-en-1-one]  8.8 nM
9. Cc1nnn(Cc2cc(Cl)ccc2/C=C/C(=O)N2CCC(CCN(C)C(=O)c3c[nH]c(=O)o3)CC2)n1 [Example 148, (E)-N-(2-(1-(3-(4-Chloro-2-((5-methyl-2H-tetrazol-2-yl)methyl)phenyl)acryloyl)piperidin-4-yl)ethyl)-N-methyl-2-oxo-2,3-dihydrooxazole-5-carboxamide]  8.9 nM
10. CCc1nnc(C2CCN(C(=O)/C=C/c3ccc(Cl)cc3Cn3nnc(C)n3)CC2)o1 [Example 94, (E)-3-(4-Chloro-2-((5-methyl-2H-tetrazol-2-yl)methyl)phenyl)-1-(4-(5-ethyl-1,3,4-oxadiazol-2-yl)piperidin-1-yl)prop-2-en-1-one]  10 nM
11. Cc1nnn(Cc2cc(C(F)(F)F)ccc2/C=C/C(=O)N2CCC(N(C)S(=O)(=O)c3ccc(F)cc3)CC2)n1 [Example 118, (E)-4-Fluoro-N-methyl-N-(1-(3-(2-((5-methyl-2H-tetrazol-2-yl)methyl)-4-(trifluoromethyl)phenyl)acryloyl)piperidin-4-yl)benzenesulfonamide]  24 nM
12. Cc1nnn(Cc2cc(Cl)ccc2/C=C/C(=O)N2CCN(Cc3coc(C)n3)CC2)n1 [Example 140.3, (E)-3-(4-Chloro-2-((5-methyl-2H-tetrazol-2-yl)methyl)phenyl)-1-(4-((2-methyloxazol-4-yl)methyl)piperazin-1-yl)prop-2-en-1-one]  30 nM
13. COC(=O)C1CCCCN1C(=O)/C=C/c1ccc(Cl)cc1Cn1nnc(C)n1 (stereo not shown) [Example 29, (E)-Methyl 1-(3-(4-Chloro-2-((5-methyl-2H-tetrazol-2-yl)methyl)phenyl)acryloyl) piperidine-2-carboxylate]  32 nM
14. Cc1ncn(C2CCN(C(=O)/C=C/c3ccc(Cl)cc3Cn3nnc(C)n3)CC2)n1 [Example 10, (E)-3-(4-Chloro-2-((5-methyl-2H-tetrazol-2-yl)methyl)phenyl)-1-(4-(3-methyl-1H-1,2,4-triazol-1-yl)piperidin-1-yl)prop-2-en-1-one]  40 nM
15. Cc1nnn(Cc2cc(C(F)(F)F)ccc2CCC(=O)N2CCC(c3nnc(C)o3)CC2)n1 [Example 40, 1-(4-(5-Methyl-1,3,4-oxadiazol-2-yl)piperidin-1-yl)-3-(2-((5-methyl-2H-tetrazol-2-yl)methyl)-4-(trifluoromethyl)phenyl)propan-1-one]  42 nM
16. COCC1CCN(C(=O)/C=C/c2ccc(Cl)cc2Cn2nnc(C)n2)CC1 [Example 49.24, (E)-3-(4-Chloro-2-((5-methyl-2H-tetrazol-2-yl)methyl)phenyl)-1-(4-(methoxymethyl)piperidin-1-yl)prop-2-en-1-one]  45 nM
17. Cc1nnn(Cc2cc(Cl)ccc2/C=C/C(=O)N2CCC(c3coc(C)n3)CC2)n1 [Example 27, (E)-3-(4-Chloro-2-((5-methyl-2H-tetrazol-2-yl)methyl)phenyl)-1-(4-(2-methyloxazol-4-yl)piperidin-1-yl)prop-2-en-1-one]  59 nM
18. Cc1cc(CN2CCN(C(=O)/C=C/c3ccc(Cl)cc3Cn3nnc(C)n3)CC2)on1 [Example 140.2, (E)-3-(4-Chloro-2-((5-methyl-2H-tetrazol-2-yl)methyl)phenyl)-1-(4-((3-methylisoxazol-5-yl)methyl)piperazin-1-yl)prop-2-en-1-one]  64 nM
19. Cc1nnn(Cc2cc(Cl)ccc2/C=C/C(=O)N2CCC(O)C[C@@H]2C)n1 (single isomer, unassigned) [Example 50a, (E)-3-(4-chloro-2-((5-methyl-2H-tetrazol-2-yl)methyl)phenyl)-1-((2S, 4R or 4S)-4-hydroxy-2-methylpiperidin-1-yl)prop-2-en-1-one]  70 nM
20. Cc1nnn(Cc2cc(Cl)ccc2/C=C/C(=O)N2CCC(n3ncnc3C)CC2)n1 [Example 11, (E)-3-(4-Chloro-2-((5-methyl-2H-tetrazol-2-yl)methyl)phenyl)-1-(4-(5-methyl-1H-1,2,4-triazol-1-yl)piperidin-1-yl)prop-2-en-1-one]  73 nM
21. COC(=O)C1COCCN1C(=O)/C=C/c1ccc(Cl)cc1Cn1nnc(C)n1 (stereo not shown) [Example 49.23, (E)-Methyl 4-(3-(4-Chloro-2-((5-methyl-2H-tetrazol-2-yl)methyl)phenyl)acryloyl)morpholine-3-carboxylate]  78 nM
22. Cc1nnn(Cc2cc(Cl)ccc2/C=C/C(=O)N2CCC(O)C[C@H]2C)n1 (single isomer, unassigned) [Example 50b, (E)-3-(4-chloro-2-((5-methyl-2H-tetrazol-2-yl)methyl)phenyl)-1-((2R, 4R or 4S)-4-hydroxy-2-methylpiperidin-1-yl)prop-2-en-1-one]  79 nM
23. Cc1nnn(Cc2cc(Cl)ccc2/C=C/C(=O)N2CCC(n3nnnc3C)CC2)n1 [Example 12, (E)-3-(4-Chloro-2-((5-methyl-2H-tetrazol-2-yl)methyl)phenyl)-1-(4-(5-methyl-1H-tetrazol-1-yl)piperidin-1-yl)prop-2-en-1-one]  157 nM
24. Cc1nnn(Cc2cc(Cl)ccc2/C=C/C(=O)N2CC(Oc3ccc(F)cc3)C2)n1 [Example 130, (E)-3-(4-Chloro-2-((5-methyl-2H-tetrazol-2-yl)methyl)phenyl)-1-(3-(4-fluorophenoxy)azetidin-1-yl)prop-2-en-1-one]  170 nM
25. Cc1ccc(/C=C/C(=O)N2CCC(Cc3nnc(C)o3)CC2)c(Cn2nnc(C)n2)c1 [Example 72, (E)-1-(4-((5-Methyl-1,3,4-oxadiazol-2-yl)methyl)piperidin-1-yl)-3-(4-methyl-2-((5-methyl-2H-tetrazol-2-yl)methyl)phenyl)prop-2-en-1-one]  290 nM
26. Cc1nnn(Cc2cc(Cl)ccc2/C=C/C(=O)N2CCC(Oc3ccc(C(F)(F)F)cn3)CC2)n1 [Example 135, (E)-3-(4-Chloro-2-((5-methyl-2H-tetrazol-2-yl)methyl)phenyl)-1-(4-((5-(trifluoromethyl)pyridin-2-yl)oxy)piperidin-1-yl)prop-2-en-1-one]  327 nM
27. Cc1nnn(Cc2cc(Cl)ccc2/C=C/C(=O)N2CCC[C@H]2c2nnc(C)o2)n1 [Example 8, (S,E)-3-(4-Chloro-2-((5-methyl-2H-tetrazol-2-yl)methyl)phenyl)-1-(2-(5-methyl-1,3,4-oxadiazol-2-yl)pyrrolidin-1-yl)prop-2-en-1-one]  378 nM
28. Cc1nnn(Cc2cc(Cl)ccc2/C=C/C(=O)N2CC(S(C)(=O)=O)C2)n1 [Example 49.2, (E)-3-(4-Chloro-2-((5-methyl-2H-tetrazol-2-yl)methyl)phenyl)-1-(3-(methylsulfonyl)azetidin-1-yl)prop-2-en-1-one]  477 nM
29. Cc1nnn(Cc2cc(F)ccc2/C=C/C(=O)N2CCC(Cc3nnc(C)o3)CC2)n1 [Example 41, (E)-3-(4-Fluoro-2-((5-methyl-2H-tetrazol-2-yl)methyl)phenyl)-1-(4-((5-methyl-1,3,4-oxadiazol-2-yl)methyl)piperidin-1-yl)prop-2-en-1-one]  654 nM
30. Cc1nnn(Cc2cc(Cl)ccc2/C=C/C(=O)N2CCC(O)(Cn3cc(C(=O)O)cn3)CC2)n1 [Example 35, (E)-1-((1-(3-(4-Chloro-2-((5-methyl-2H-tetrazol-2-yl)methyl)phenyl)acryloyl)-4-hydroxypiperidin-4-yl)methyl)-1H-pyrazole-4-carboxylic acid]  924 nM
31. Cc1nnn(Cc2cc(Cl)ccc2/C=C/C(=O)N2CCCC(c3nncn3C)C2)n1 (stereo not shown) [Example 49.16, (E)-3-(4-Chloro-2-((5-methyl-2H-tetrazol-2-yl)methyl)phenyl)-1-(3-(4-methyl-4H-1,2,4-triazol-3-yl)piperidin-1-yl)prop-2-en-1-one]  1060 nM
